This note sets out measurements from US8669249B2, “Poly (ADP-ribose) polymerase (PARP) inhibitors” (Takeda Pharmaceutical Company Limited, priority 2009, dated 2014).

The structures appear in SMILES notation.

T1 sequence (P09874 whole entry): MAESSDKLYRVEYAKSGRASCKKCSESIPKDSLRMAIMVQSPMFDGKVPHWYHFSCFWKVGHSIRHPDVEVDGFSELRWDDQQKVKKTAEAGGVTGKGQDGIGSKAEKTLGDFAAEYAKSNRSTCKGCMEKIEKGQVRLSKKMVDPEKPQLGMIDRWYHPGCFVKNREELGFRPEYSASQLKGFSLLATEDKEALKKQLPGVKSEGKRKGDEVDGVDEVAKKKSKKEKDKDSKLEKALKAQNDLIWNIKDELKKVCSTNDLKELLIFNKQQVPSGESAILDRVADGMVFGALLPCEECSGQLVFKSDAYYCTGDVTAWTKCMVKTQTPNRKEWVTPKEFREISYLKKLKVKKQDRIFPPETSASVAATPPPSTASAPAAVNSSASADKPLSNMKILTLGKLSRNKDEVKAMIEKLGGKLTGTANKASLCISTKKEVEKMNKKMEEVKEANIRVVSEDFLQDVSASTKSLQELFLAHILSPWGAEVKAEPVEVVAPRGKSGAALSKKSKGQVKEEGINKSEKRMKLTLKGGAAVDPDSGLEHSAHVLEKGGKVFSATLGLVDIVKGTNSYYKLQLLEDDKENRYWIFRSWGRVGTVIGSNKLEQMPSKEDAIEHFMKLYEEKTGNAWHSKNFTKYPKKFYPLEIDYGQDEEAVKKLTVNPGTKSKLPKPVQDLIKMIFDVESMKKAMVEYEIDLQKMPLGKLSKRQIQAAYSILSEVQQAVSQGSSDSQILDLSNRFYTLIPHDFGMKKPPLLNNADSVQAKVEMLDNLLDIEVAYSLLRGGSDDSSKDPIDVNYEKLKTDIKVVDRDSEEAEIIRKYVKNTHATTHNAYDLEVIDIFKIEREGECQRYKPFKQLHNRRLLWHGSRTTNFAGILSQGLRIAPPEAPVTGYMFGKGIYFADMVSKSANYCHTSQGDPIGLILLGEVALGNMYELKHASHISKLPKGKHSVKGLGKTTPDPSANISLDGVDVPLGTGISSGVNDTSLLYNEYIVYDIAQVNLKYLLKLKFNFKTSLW

The test concerns the target T1, PARP (Homo sapiens, UniProt P09874).
T1 construct: purchased Trevigen 4684-096-K HT (kit); 4684-096-01 (PARP enzyme)
Put plainly: PARP ELISA (ELISA-based colorimetric PARP/Apoptosis Assay kit, Trevigen). It counts as biochemical. The note with it: pIC50=-log10 IC50, IC50 in mol/L; inhibition of PARP catalytic activity. How it is done: Inhibition Constant (IC50) from PARP ELISA
After 10 minutes of catalysis the reaction is quenched by solvent aspiration followed by irrigation of the assay wells 4 times with phosphate buffered saline (PBS) containing 0.1% t-Octylphenoxypolyethoxyethanol (Triton® X-100). Mouse Anti-poly ADP ribose (PAR) monoclonal antibody, goat antimouse immunoglobulin G (IgG)-horse radish peroxidase (HRP) conjugate and HRP substrate are added according to the manufacture's specifications to generate a colorimetric signal proportional to PARP catalytic activity.
Consider `CCOC(=O)c1ccc(N2CCN(Cc3cc4c(cc3F)OC(C)C(=O)N4)CC2)cc1` (centres unmarked) [Compound 333, Ethyl 4-(4-((7-fluoro-2-methyl-3-oxo-3,4-dihydro-2H-benzo[b][1,4]oxazin-6-yl)methyl)piperazin-1-yl)benzoate], for which the IC50 (as a rule, the concentration at which inhibition is half-maximal) is greater than 200 nM.
Turning to `CC(C)(C)OC(=O)N1CCN(Cc2ccc3c(c2)NC(=O)CO3)CC1` [Compound 357, tert-Butyl 4-((3-oxo-3,4-dihydro-2H-benzo[b][1,4]oxazin-6-yl)methyl)piperazine-1-carboxylate], the IC50 is greater than 200 nM.
`CCOC(=O)c1ccc(N2CCN(Cc3cc(F)c4c(c3)NC(=O)C(C)O4)CC2)nc1` (centres unmarked) [Compound 312, Ethyl 6-(4-((8-fluoro-2-methyl-3-oxo-3,4-dihydro-2H-benzo[b][1,4]oxazin-6-yl)methyl)piperazin-1-yl)nicotinate] had a half-maximal inhibitory concentration (IC50) greater than 200 nM.
The same measure for `CC(C)NC(=O)c1ccc(N2CCN(Cc3cc(Cl)c4c(c3)NC(=O)C(C)O4)CC2)cc1` (centres unmarked) [Compound 310, 4-(4-((8-Chloro-2-methyl-3-oxo-3,4-dihydro-2H-benzo[b][1,4]oxazin-6-yl)methyl)piperazin-1-yl)-N-isopropylbenzamide]: 31.6 nM; for `Cc1c(CN2CC=C(c3ccc(Cl)cc3)CC2)ccc2c1NC(=O)C(C)O2` (centres unmarked) [Compound 326, 6-((4-(4-Chlorophenyl)-5,6-dihydropyridin-1(2H)-yl)methyl)-2,5-dimethyl-2H-benzo[b][1,4]oxazin-3(4H)-one]: greater than 200 nM; for `CC1Oc2ccc(CN3CCN(c4ccc(NC(=O)c5ccccc5)cc4)CC3)cc2NC1=O` (centres unmarked) [Compound 248, N-(4-(4-((2-Methyl-3-oxo-3,4-dihydro-2H-benzo[b][1,4]oxazin-6-yl)methyl)piperazin-1-yl)phenyl)benzamide]: no less than 126 nM.
The molecule `Cc1cc2c(cc1CN1CCC(c3ccc(Cl)cc3)CC1)NC(=O)C(C)O2` (centres unmarked) [Compound 322, 6-((4-(4-Chlorophenyl)piperidin-1-yl)methyl)-2,7-dimethyl-2H-benzo[b][1,4]oxazin-3(4H)-one] had an IC50 greater than 200 nM.
The molecule `Cc1c(CN2CCN(c3ccc(Cl)cc3)CC2)ccc2c1NC(=O)C(C)O2` (centres unmarked) [Compound 325, 6-((4-(4-Chlorophenyl)piperazin-1-yl)methyl)-2,5-dimethyl-2H-benzo[b][1,4]oxazin-3(4H)-one] showed an IC50 greater than 200 nM.
The same measure for `CC1Oc2ccc(CN3CCN(c4ccc(C(=O)N(C)C)cc4)CC3)cc2NC1=O` (centres unmarked) [Compound 378, N,N-Dimethyl-4-(4-((2-methyl-3-oxo-3,4-dihydro-2H-benzo[b][1,4]oxazin-6-yl)methyl)piperazin-1-yl)benzamide]: greater than 200 nM; for `CC(C)NC(=O)c1ccc(N2CCC(Cc3ccc4c(c3)NC(=O)C(C)O4)CC2)cc1` (centres unmarked) [Compound 391, N-Isopropyl-4-(4-((2-methyl-3-oxo-3,4-dihydro-2I-benzo[b][1,4]oxazin-6-yl)methyl)piperidin-1-yl)benzamide]: greater than 200 nM; for `CC1Oc2cc(F)c(CN3CCN(c4ccc(Cl)cc4)CC3)cc2NC1=O` (centres unmarked) [Compound 330, 6-((4-(4-Chlorophenyl)piperazin-1-yl)methyl)-7-fluoro-2-methyl-2H-benzo[b][1,4]oxazin-3(4H)-one]: greater than 200 nM.
The result for `CC1Oc2c(Cl)cc(CN3CCC(c4ccc(Cl)cc4)CC3)cc2NC1=O` (centres unmarked) [Compound 165, 8-Chloro-6-((4-(4-chlorophenyl)piperidin-1-yl)methyl)-2-methyl-2H-benzo[b][1,4]oxazin-3(4H)-one] reads no less than 126 nM.
Molecule `CCC(=O)Nc1ccc(N2CCN(Cc3ccc4c(c3)NC(=O)C(C)O4)CC2)cc1` (centres unmarked) [Compound 246, N-(4-(4-((2-Methyl-3-oxo-3,4-dihydro-2H-benzo[b][1,4]oxazin-6-yl)methyl)piperazin-1-yl)phenyl)propionamide] showed an IC50 of no less than 126 nM.
The same measure for `CC1Oc2cc(F)c(CN3CCN(c4ccc(C(=O)O)cc4)CC3)cc2NC1=O` (centres unmarked) [Compound 334, 4-(4-((7-Fluoro-2-methyl-3-oxo-3,4-dihydro-2H-benzo[b][1,4]oxazin-6-yl)methyl)piperazin-1-yl)benzoic acid]: greater than 200 nM.
